Data as given in patent US9096829B2, “Human mast cell line and uses thereof” (UNIVERSITY OF SOUTH FLORIDA, priority 2009, dated 2015).

Legend:
Format in all cases: cell-based, human
USF-MC1 cells [1] = test: Beta-hexosaminidase (histamine) release from USF-MC1 mast cells
Protocol: (§1) FIGS. 3A-D show graphs of histamine (beta hexosaminidase) release from USF-MC1 cells compared to LAD2 cells after one hour (FIGS. 3A and 3B, respectively), and after six hours (FIGS. 3D and 3C, respectively). USF-MC1 cells (2×10^6 per well) were coated with biotinylated human myeloma IgE for 18 hours. Cells were then washed and challenged with streptavidin (100 ng/ml), ionomycin (5 μM), ANP (1 μM), ANP+KP2, ANP+Isatin. After 30 minutes, supernatants and cell lysates were developed with […] and optical density (OD) was read at 405 nm. Percent release is expressed as a ratio of supernatant over total (supernatant+lysate). […] In addition, ANP-induced histamine release is attenuated by an NPRA receptor antagonist (isatin).
In order to activate mast cells via the FceR1 receptor, cells were cultured for 18 hours with biotinylated human myeloma IgE (100 ng/ml)(Sigma). Cells were then challenged with streptavidin (100 ng/ml)(Sigma), ionomycin (5 μM), or atrial natriuretic peptide (ANP) (100 ng/ml). After 30 minutes, supernatants and cell pellets were harvested. Substrate solution (p-Nitrophenyl-N-acetyl-B-D-glucosaminide Calbiochem, 0.13% in sodium citric solution) was added to either the cell supernatants or pellets and incubated for 1.5 hr. 0.4M glycine solution was then added to stop the reaction. The optical density (OD) was read at 405 nm. Percent release was expressed as a ratio of supernatant over total (supernatant+lysate). Percent release of beta-hexosadminidase by SV40 LT-transfected USF-MC1 cells and non-transfected USF-MC1 cells is shown in FIG. 5C.
USF-MC1 cells (2×10^6 per well) were coated with biotinylated human myeloma IgE for 18 hours. Cells were then washed and challenged with streptavidin (100 ng/ml), ionomycin (5 μM), ANP (1 μM), ANP+KP2, ANP+Isatin. After 30 minutes, supernatants and cell lysates were developed with […] and optical density (OD) was read at 405 nm. Percent release is expressed as a ratio of supernatant over total (supernatant+lysate). […]

LAD2 cells [2] = test: Beta-hexosaminidase (histamine) release from LAD2 mast cells; settings: ANP challenge plus isatin
Protocol: as §1
In order to activate mast cells via the FceR1 receptor, cells were cultured for 18 hours with biotinylated human myeloma IgE (100 ng/ml)(Sigma). Cells were then challenged with streptavidin (100 ng/ml)(Sigma), ionomycin (5 μM), or atrial natriuretic peptide (ANP) (100 ng/ml). After 30 minutes, supernatants and cell pellets were harvested. […] The optical density (OD) was read at 405 nm. Percent release was expressed as a ratio of supernatant over total (supernatant+lysate). […]

USF-MC1 cells [3] = test: Leukotriene C4 release (ELISA) from USF-MC1 mast cells; settings: ANP challenge plus isatin
Protocol: (§2) TNF-a (R&G Systems), IL-17 (eBioscience), and Leukotrine C4 (Cayman Chemical) protein concentrations in mast cell supernatants were determined using ELISA kits from each respective manufacturer. Each ELISA was performed according to the manufacturer's instructions.

LAD2 cells [4] = test: Leukotriene C4 release (ELISA) from LAD2 mast cells; settings: ANP challenge plus isatin
Protocol: as §2

SMILES | histamine (beta hexosaminidase) release after challenge (USF-MC1 cells [1]; ionomycin 5 μM or ANP 1 μM, 30 minutes) | effect on ANP-induced histamine release (USF-MC1 cells [1]; ANP 1 μM + isatin, 30 minutes) | effect on ANP-induced release of B-Hex (USF-MC1 cells [1]; ANP challenge plus isatin) | effect on ANP-induced release of B-Hex (LAD2 cells [2]) | effect on ANP-induced release of LTC4 (USF-MC1 cells [3]) | effect on ANP-induced release of LTC4 (LAD2 cells [4])
C[C@H](CCC(=O)O)C[C@H](C)C[C@H](C)C(=O)/C=C(\O)[C@H](C)C[C@H](C)C/C=C/[C@@H](C)[C@@H](O)[C@@H](C)[C@@H](O)C[C@@H]1CC[C@@](C)([C@H]2CC[C@@](C)([C@@H](C)O)O2)O1 [ionomycin] | releases histamine within minutes | – | – | – | – | –
O=C1Nc2ccccc2C1=O [isatin] | – | attenuated | reduced to baseline | reduced to baseline | reduced to baseline | reduced to baseline
